Experiments:
[1] = tested on: Stop-POST5 / Stop-PRE6 complex; assay: High throughput translocation assay (proflavin fluorescence, plate reader); format: biochemical; conditions: FIG. 17B
Source text: FIGS. 17A, 17B, 17C, and 17D are graphs showing data from the high throughput translocation assay. FIG. 17A is a graph showing a stable prf-fluorescence increase at different G418 concentrations [G418] due to eEF2-dependent conversion of a Stop-PRE6 complex to a Stop-POST6 complex, resulting from the increase in quantum yield of Trp-tRNA(prf). FIG. 17B is a graph showing fluorescence results in FIG. 17A as a function of [G418]. FIG. 17C is a graph showing the kinetics of Stop-PRE6 translocation, measured at 1 μM eEF2 and 2 μM G418. FIG. 17D is a graph showing the kinetics of Trp-PRE6 translocation to Trp-POST6 measured at 0.05 μM of eEF2 in the absence of G418.
Different proflavin-labeled aa-tRNAs, denoted aa-tRNA(prf)s, were used to monitor the elongation cycle changes by fluorescence change at 511 nm following excitation at 458 nm (Ng et al. PNAS, 118(2) e2020599118, 1-10 (2021)). Binding of Trp-TC(prf) to a Trp-POST5 complex in the presence of eEF2 lead to a biphasic increase, with the first, more rapid phase corresponding to formation of Trp-PRE6, followed by a slower, eEF2-dependent phase corresponding to conversion of Trp-PRE6 into Trp-POST6. The translocation step was monitored using a plate-reader assay for both G418-stimulated readthrough of Stop-POST5 (FIGS. 17A-17C) and cognate elongation of Trp-POST5 (FIG. 17D) by adjustment of [eEF2].

[2] = target: T1, eRF1 (Saccharomyces cerevisiae, UniProt P12385); assay: [3H]-AzAt photoaffinity labeling of isolated eRF1; format: binding; conditions: FIG. 2E
T1 construct: made in house; host or cells: E. coli BL21(DE3) CodonPlus
T1 sequence (P12385 whole entry): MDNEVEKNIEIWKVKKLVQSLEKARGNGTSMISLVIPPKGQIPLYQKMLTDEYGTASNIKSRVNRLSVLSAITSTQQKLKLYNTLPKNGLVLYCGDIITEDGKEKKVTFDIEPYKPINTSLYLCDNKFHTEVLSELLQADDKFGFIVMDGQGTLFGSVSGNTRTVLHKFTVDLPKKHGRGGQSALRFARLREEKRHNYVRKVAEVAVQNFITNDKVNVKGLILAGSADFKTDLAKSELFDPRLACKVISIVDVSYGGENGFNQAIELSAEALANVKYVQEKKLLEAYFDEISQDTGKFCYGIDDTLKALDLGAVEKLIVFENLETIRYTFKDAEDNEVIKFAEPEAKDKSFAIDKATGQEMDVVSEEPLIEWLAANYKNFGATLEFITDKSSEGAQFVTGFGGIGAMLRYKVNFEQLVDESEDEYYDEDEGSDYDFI
Experimental: (§1) Photoaffinity labeling with [^3H]-AzAt. Samples in Buffer 4, typically 20 μL, were incubated in the dark (20 min for Stop-POST5 and 80S-IRES complexes, 2 min for release factors) with various concentrations of [^3H]-AzAt at 37° C., transferred to a UV-transparent cuvette which was covered with parafilm to prevent evaporation, and irradiated in a Rayonet photochemical reactor equipped with 300 nm UV lamps for 5 min at room temperature. This was followed by quenching with 2 mM DTT at 37° C. for 5 min under ambient light. The irradiation time gave complete photolysis of the phenyl azide moiety in AzAt. Photolysis was also complete at 5 min in the presence of 1 mM ataluren, ruling out internal filtering effects.
(§2) Photoaffinity labeling of release factors. Solutions containing eRF1 (10 μM), eRF3 (20 μM) and 1 mM GMPPMP were pre-incubated at 37° C. for 2 min to form the ternary complex prior to photolabeling with [^3H]-AzAt. After quenching, reaction mixtures were loaded onto a 4-15% mini protean SDS-PAGE gel for protein separation and isolation. Gel slices containing eRF1 or eRF3, as shown by Coomassie Blue R250 staining, were crushed and the radioactivity was extracted in extraction buffer (50 mM Tris-HCl, 150 mM NaCl, and 0.1 mM EDTA; pH 7.5) by vigorously shaking at 70° C. for 30 min. The data fitting was performed using the software Prism. Labeling results of eRF1 alone and within the eRF1.eRF3.GDPNP complex were fit with a one-site binding model and a two-site binding model, respectively.

[3] = target: T2, eRF1.eRF3.GDPNP ternary complex (Saccharomyces cerevisiae, UniProt P12385); assay: [3H]-AzAt photoaffinity labeling of eRF1 within ternary complex; format: binding; conditions: compared with isolated eRF1, FIG. 2E
T2 construct: made in house; host or cells: E. coli BL21(DE3) CodonPlus
T2 sequence (P05453 166-685): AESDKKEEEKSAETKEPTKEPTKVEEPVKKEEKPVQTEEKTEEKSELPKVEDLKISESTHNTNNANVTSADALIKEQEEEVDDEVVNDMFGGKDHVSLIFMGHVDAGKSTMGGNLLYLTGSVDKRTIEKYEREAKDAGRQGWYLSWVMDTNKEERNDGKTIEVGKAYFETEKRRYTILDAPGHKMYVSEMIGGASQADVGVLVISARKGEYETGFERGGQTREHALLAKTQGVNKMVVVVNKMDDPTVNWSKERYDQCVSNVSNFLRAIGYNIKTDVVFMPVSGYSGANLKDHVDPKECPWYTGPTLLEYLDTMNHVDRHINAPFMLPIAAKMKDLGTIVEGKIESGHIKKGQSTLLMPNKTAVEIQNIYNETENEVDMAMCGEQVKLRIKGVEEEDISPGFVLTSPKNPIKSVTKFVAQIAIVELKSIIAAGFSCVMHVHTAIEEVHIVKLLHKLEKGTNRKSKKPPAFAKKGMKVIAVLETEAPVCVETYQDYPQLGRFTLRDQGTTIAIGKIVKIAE
T2 sequence (P12385 whole entry): as the sequence (P12385 whole entry) above
Experimental: as §1, §2

[4] = tested on: Small RNAs within Stop-POST5 complex; assay: AzAt photoincorporation into small RNAs (urea-PAGE, RNAse H fragments); format: binding, shrimp (Artemia salina)
Experimental: FIG. 11 illustrates 8% Urea-PAGE resolution of small RNAs.
as §1
Stop-POST5 and 80S-IRES complexes. 1 μM solutions of either Stop-POST5 or 80S-S.IRES, determined by A260, were photolabeled by [^3H]-AzAt. The sample was then either directly purified by ultracentrifugation through a sucrose cushion to determine the photoincorporation stoichiometry in the complex, or subjected to phenol/chloroform extraction to determine the photoincorporation stoichiometry in the total RNA. To determine the photoincorporation background arising from incomplete removal of noncovalently bound photolyzed AzAt, AzAt was prephotolysed for 5 min before adding to the complex, followed by the 20 min incubation in dark at 37° C. and subsequent sucrose cushion purification or RNA extraction as described above.
(§3) RNaseH Fragment Assay. Total RNA was prepared from the ^3H-AzAt photoaffinity labeled ribosome by phenol-chloroform extraction. RNA: DNA duplexes were formed by incubating total RNA (0.2 μM) with an oligonucleotide pair (1 μM of each, sequences shown Table 1), flanking a specific RNA region, in 22.8 μL of water at 95° C. for 2 min, followed by annealing at 50° C. for 30 s and quenching on ice. Six units (1.2 μL) of RNase H (NEB) and 6 μl of 5×RNase H Reaction Buffer were next added to the RNA: DNA duplex and incubated at 37° C. for 1 hour, followed by phenol-chloroform extraction of RNA. The digested RNA was separated on 12% TBE-Urea PAGE gel, and the target band along with the adjacent upper and bottom gels were sliced by a 2 mm gel cutter. The gel slices were crushed and the ^3H labeled rRNA fragment was extracted in water by vigorously shaking at 70° C. for 30 min, or by overnight extraction in elution buffer (0.3M sodium acetate, 0.25% SDS, 1 mM EDTA). The slurry was removed by centrifugation and the eluted ^3H labeled rRNA in the supernatant was quantified. The stoichiometry of AzAt photoincorporation was calculated based on a gel recovery yield of 20±2%, determined using an authentic sample of [^3H]-Gln-tRNA^Gln.
Small RNAs. AzAt photoincorporation into the 4 small RNAs (CrPV-IRES, 5.8S rRNA, 5S rRNA, and tRNA) contained within POST5 was examined by one-dimensional (1D) urea-PAGE analysis, by RNA-Seq, and by RNAse H fragment assay (FIG. 11).

[5] = tested on: rRNA fragments I-IV of Stop-POST5; assay: RNaseH fragment assay, Stop-POST5; format: binding, shrimp (Artemia salina)
Experimental: as §3
Testing the functional pertinence of AzAt photolabeling of 18S A1195, 28S-A3093, 28S-A2672, and 28S-2669. An RNAse H fragment assay was employed to determine whether the potential functionally significant sites identified by LASER-seq correspond to ataluren binding sites relevant for termination activity. In this assay, oligonucleotide hybridization, RNase H digestion and polyacrylamide gel electrophoresis (PAGE) were used to determine the stoichiometry of [^3H]-AzAt photoincorporation into the three rRNA fragments that together include the four nucleotides of interest: Fragment I, 18S-A1195; Fragment II, 26S-A3093; Fragment III, 26S-A2669 and 26S-A2672 (Table 5). The separate addition of four potential competitors of AzAt binding (eRF1 alone, the stably bound eRF1.eRF3.GDPNP complex, ataluren, and the ataluren-like TRID GJ072) was used to test how these affected such photoincorporation. These experiments, the results of which are summarized in Table 5, were performed at two different AzAt concentrations. eRF1 and eRF1.eRF3.GDPNP effects were measured using 300 μM AzAt, paralleling the LASER-Seq PAL experiments.

[6] = Solubility in aqueous medium; format: physicochemical
[7] = PAL, 30 μM AzAt, alone or plus competing ligand named as label
[8] = Stop-POST5, PAL, 30 μM AzAt, alone or plus Ataluren 500 μM / GJ072 150 μM named as label

**Q.** With CN[C@@H]1[C@@H](O)[C@@H](O[C@@H]2[C@@H](O)[C@H](O[C@H]3O[C@H]([C@@H](C)O)[C@@H](O)[C@H](O)[C@H]3N)[C@@H](N)C[C@H]2N)OC[C@]1(C)O [G418] as the compound, how does the “EC50 value, G418-stimulated readthrough translocation” value [1] read?
**A.** fully consistent with previous determination

**Q.** Which “effect on AzAt photoincorporation into isolated eRF1” value [2] does the source give for COc1cccc(-n2c(SCC(=O)Nc3ccc(F)cc3)nnc2-c2ccccn2)c1 [GJ072] here?
**A.** substantially inhibited

**Q.** And the “inhibition of AzAt photoincorporation into eRF1 within the ternary complex” value [3]?
**A.** less marked

**Q.** And the “Photoincorporation yields into CrPV-IRES nts1-155” value ([4]; PAL, 30 μM AzAt, alone (AzAt) or plus competing ligand named as label (Ataluren 500 μM, GJ072 150 μM))?
**A.** 0.51 ± 0.03 mole %

**Q.** And the “Photoincorporation yields into 5S rRNA” value [4, 7]?
**A.** 0.15 ± 0.01 mole %

**Q.** And the “Photoincorporation yields into 5.8S rRNA” value [4, 7]?
**A.** 0.19 ± 0.07 mole %

**Q.** And the “Photoincorporation yields into CrPV-IRES All” value [4, 7]?
**A.** 0.59 ± 0.14 mole %

**Q.** And the “Photoincorporation yields into CrPV-IRES nts156-221” value [4, 7]?
**A.** 0.22 ± 0.05 mole %

**Q.** What about the “Photoincorporation yields into CrPV-IRES nts222-278” value [4, 7] of the same compound?
**A.** 0.09 ± 0.05 mole %

**Q.** And the “Photoincorporation yields into tRNA^Gln” value [4, 7]?
**A.** 0.25 ± 0.03 mole %

**Q.** And the “effect on AzAt labeling of CrPV-IRES fragments 1-155 and 156-221” value ([4]; RNAse H fragment assay)?
**A.** no clearly significant changes

**Q.** And the “effect on AzAt labeling of small RNAs” value ([4]; none clearly significant)?
**A.** generally small reductions

**Q.** What about the “effect on AzAt photoincorporation into Fragment IV (26S A1437/A1438)” value [5] of the same compound?
**A.** neither ataluren nor GJ072 reduce labeling at all

**Q.** What about the “effect on AzAt photoincorporation into Fragment I (18S-A1195)” value ([5]; Stop-POST5) of the same compound?
**A.** strongly inhibited

**Q.** And the “effect on AzAt photoincorporation into Fragment II (A3093)” value ([5]; Stop-POST5)?
**A.** stimulated

**Q.** What about the “effect on AzAt photoincorporation into Fragment III (A2669/A2672)” value ([5]; Stop-POST5) of the same compound?
**A.** only weakly inhibited

**Q.** What about the “Photoincorporation yields into 18S A1195/ I: 18S 1151-1206” value [5, 8] of the same compound?
**A.** 0.10 ± 0.01 mole %

**Q.** And the “Photoincorporation yields into 26S-A2669:A2672/ III: 26S 2638-2702” value [5, 8]?
**A.** 0.07 ± 0.01 mole %

**Q.** And the “Photoincorporation yields into 26S-A3093/ II: 26S 3069-3113” value [5, 8]?
**A.** 0.07 ± 0.01 mole %

**Q.** What about the “Photoincorporation yields into RNAse H Fragment IV: 26S 1413-1476” value [5, 8] of the same compound?
**A.** 0.019 ± 0.004%

**Q.** And the “solubility in aqueous medium” value [6]?
**A.** limited solubility
